Structures can show the parent of a compound that is named as a salt.
biological target: T1, BACE1 (Homo sapiens, UniProt P56817); assay: Cellular Aβ-lowering assay (Aβ40 ELISA); format: cell-based; details: HEK293 cells stably expressing human APP695; Aβ40 in culture supernatant; read-out: BACE1 cell act. Aβ40 IC50
T1 construct: Human HEK293 cells which are stably transfected with a vector expressing a cDNA of the human APP wt gene (APP695); endogenous in cells; host or cells: HEK293 stably transfected with human APP695 wt
Protocol: Cellular Aβ-Lowering Assay:
Human HEK293 cells which are stably transfected with a vector expressing a cDNA of the human APP wt gene (APP695) were used to assess the potency of the compounds in a cellular assay. The cells were seeded in 96-well microtiter plates in cell culture medium (Iscove, plus 10% (v/v) fetal bovine serum, glutamine, penicillin/streptomycin) to about 80% confluence and the compounds were added at a 10× concentration in 1/10 volume of medium without FCS containing 8% DMSO (final concentration of DMSO was kept at 0.8% v/v). After 18-20 hrs incubation at 37° C. and 5% CO2 in a humidified incubator the culture supernatant was harvested for the determination of Aβ40 concentrations. […] Subsequently the wells of the microtiter plate were washed extensively with Tris-buffered saline containing 0.05% Tween 20 and the assay was developed with tetramethylbenzidine/H2O2 in citric acid buffer. After stopping the reaction with one volume 1 NH2SO4 the reaction was measured in an ELISA reader at 450 nm wavelength. The concentrations of Aβ in the culture supernatants were calculated from a standard curve obtained with known amounts of pure Aβ peptide.

T1 sequence (P56817 46-501): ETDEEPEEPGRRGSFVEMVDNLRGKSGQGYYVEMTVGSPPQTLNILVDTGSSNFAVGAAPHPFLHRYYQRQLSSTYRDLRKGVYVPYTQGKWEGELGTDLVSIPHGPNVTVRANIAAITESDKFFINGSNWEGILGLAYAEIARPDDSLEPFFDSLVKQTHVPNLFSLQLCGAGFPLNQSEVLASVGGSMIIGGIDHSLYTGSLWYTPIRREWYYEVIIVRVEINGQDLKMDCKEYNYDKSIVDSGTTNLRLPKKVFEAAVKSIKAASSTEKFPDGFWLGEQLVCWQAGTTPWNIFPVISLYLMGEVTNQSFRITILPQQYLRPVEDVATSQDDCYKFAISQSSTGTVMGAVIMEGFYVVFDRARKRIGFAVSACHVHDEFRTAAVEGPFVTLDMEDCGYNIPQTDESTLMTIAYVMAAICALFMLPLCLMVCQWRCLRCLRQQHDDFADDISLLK

Row | SMILES | IC50 [nM]
1 | CC1(C)OC(N)=N[C@](C)(c2cc(NC(=O)c3ccc(OCC(F)F)cn3)ccc2F)C1(F)F [Example 28, 5-(2,2-Difluoro-ethoxy)-pyridine-2-carboxylic acid [3-((R)-2-amino-5,5-difluoro-4,6,6-trimethyl-5,6-dihydro-4H-[1,3]oxazin-4-yl)-4-fluoro-phenyl]-amide] | 200
2 | CC1(C)OC(N)=N[C@](C)(c2cc(NC(=O)c3ccc(OCC(F)(F)C(F)F)cn3)ccc2F)C1(F)F [Example 30, 5-(2,2,3,3-Tetrafluoro-propoxy)-pyridine-2-carboxylic acid [3-((R)-2-amino-5,5-difluoro-4,6,6-trimethyl-5,6-dihydro-4H-[1,3]oxazin-4-yl)-4-fluoro-phenyl]-amide] | 230
3 | CC1(C)OC(N)=N[C@](C)(c2cc(NC(=O)c3ccc(OCC4CC4)nc3)ccc2F)C1(F)F [Example 31, N-[3-((R)-2-Amino-5,5-difluoro-4,6,6-trimethyl-5,6-dihydro-4H-[1,3]oxazin-4-yl)-4-fluoro-phenyl]-6-cyclopropylmethoxy-nicotinamide] | 2810
4 | CC1(C)OC(N)=N[C@](C)(c2cc(NC(=O)c3cnc(OCC4CC4)cn3)ccc2F)C1(F)F [Example 36, 5-Cyclopropylmethoxy-pyrazine-2-carboxylic acid [3-((R)-2-amino-5,5-difluoro-4,6,6-trimethyl-5,6-dihydro-4H-[1,3]oxazin-4-yl)-4-fluoro-phenyl]-amide] | 2460
5 | CC1(C)OC(N)=N[C@](C)(c2cc(NC(=O)c3ccn(C(F)F)n3)ccc2F)C1(F)F [Example 38, 1-Difluoromethyl-1H-pyrazole-3-carboxylic acid [3-((R)-2-amino-5,5-difluoro-4,6,6-trimethyl-5,6-dihydro-4H-[1,3]oxazin-4-yl)-4-fluoro-phenyl]-amide] | 6
6 | C[C@]1(c2cc(NC(=O)c3ccc(C#CC4CC4)cn3)ccc2F)N=C(N)OCC1(F)F [Example 40, 5-Cyclopropylethynyl-pyridine-2-carboxylic acid [3-((R)-2-amino-5,5-difluoro-4-methyl-5,6-dihydro-4H-[1,3]oxazin-4-yl)-4-fluoro-phenyl]-amide] | 460
7 | C[C@]1(c2cc(NC(=O)c3cnc(OCC4CC4)cn3)ccc2F)N=C(N)OCC1(F)F [Example 46, 5-Cyclopropylmethoxy-pyrazine-2-carboxylic acid [3-((R)-2-amino-5,5-difluoro-4-methyl-5,6-dihydro-4H-[1,3]oxazin-4-yl)-4-fluoro-phenyl]-amide] | 70
8 | C[C@]1(c2cc(NC(=O)c3cocn3)ccc2F)N=C(N)OCC1(F)F [Example 55, Oxazole-4-carboxylic acid [3-((R)-2-amino-5,5-difluoro-4-methyl-5,6-dihydro-4H-[1,3]oxazin-4-yl)-4-fluoro-phenyl]-amide] | 495
9 | CCc1nc(C(=O)Nc2ccc(F)c([C@@]3(C)N=C(N)OCC3(F)F)c2)co1 [Example 56, 2-Ethyl-oxazole-4-carboxylic acid [3-((R)-2-amino-5,5-difluoro-4-methyl-5,6-dihydro-4H-[1,3]oxazin-4-yl)-4-fluoro-phenyl]-amide] | 140
10 | C[C@]1(c2cc(NC(=O)c3coc(CCl)n3)ccc2F)N=C(N)OCC1(F)F [Example 57, 2-Chloromethyl-oxazole-4-carboxylic acid [3-((R)-2-amino-5,5-difluoro-4-methyl-5,6-dihydro-4H-[1,3]oxazin-4-yl)-4-fluoro-phenyl]-amide] | 73
11 | Cc1conc1C(=O)Nc1ccc(F)c([C@@]2(C)N=C(N)OCC2(F)F)c1 [Example 61, 4-Methyl-isoxazole-3-carboxylic acid [3-((R)-2-amino-5,5-difluoro-4-methyl-5,6-dihydro-4H-[1,3]oxazin-4-yl)-4-fluoro-phenyl]-amide] | 305
12 | CCc1ocnc1C(=O)Nc1ccc(F)c([C@@]2(C)N=C(N)OCC2(F)F)c1 [Example 69, formate] | 1480
13 | C[C@]1(c2cc(NC(=O)c3ccc(C(N)=O)cn3)ccc2F)N=C(N)OCC1(F)F [Example 72] | 230
14 | CC(=O)Nc1ccc(F)c([C@@]2(C)N=C(N)OCC2(F)F)c1 [Example 73, N-[3-((R)-2-Amino-5,5-difluoro-4-methyl-5,6-dihydro-4H-[1,3]oxazin-4-yl)-4-fluoro-phenyl]-acetamide] | 180
15 | CCn1cc(Cl)c(C(=O)Nc2ccc(F)c([C@@]3(C)N=C(N)OCC3(F)F)c2)n1 [Example 77, 4-Chloro-1-ethyl-1H-pyrazole-3-carboxylic acid [3-((R)-2-amino-5,5-difluoro-4-methyl-5,6-dihydro-4H-[1,3]oxazin-4-yl)-4-fluoro-phenyl]-amide] | 100
16 | C[C@]1(c2cc(NC(=O)c3nn(CC(F)(F)F)cc3Cl)ccc2F)N=C(N)OCC1(F)F [Example 78, 4-Chloro-1-(2,2,2-trifluoro-ethyl)-1H-pyrazole-3-carboxylic acid [3-((R)-2-amino-5,5-difluoro-4-methyl-5,6-dihydro-4H-[1,3]oxazin-4-yl)-4-fluoro-phenyl]-amide] | 1770
17 | C[C@]1(c2cc(NC(=O)c3coc(CF)n3)ccc2F)N=C(N)OCC1(F)F [Example 79, 2-Fluoromethyl-oxazole-4-carboxylic acid [3-((R)-2-amino-5,5-difluoro-4-methyl-5,6-dihydro-4H-[1,3]oxazin-4-yl)-4-fluoro-phenyl]-amide formate] | 3
18 | C[C@]1(c2cc(NC(=O)c3ccc([N+](=O)[O-])o3)ccc2F)N=C(N)OCC1(F)F [Example 81, 5-Nitro-furan-2-carboxylic acid [3-((R)-2-amino-5,5-difluoro-4-methyl-5,6-dihydro-4H-[1,3]oxazin-4-yl)-4-fluoro-phenyl]-amide] | 1900
19 | C[C@]1(c2cc(NC(=O)/C=C/c3ccco3)ccc2F)N=C(N)OCC1(F)F [Example 82, (E)-N-[3-((R)-2-Amino-5,5-difluoro-4-methyl-5,6-dihydro-4H-[1,3]oxazin-4-yl)-4-fluoro-phenyl]-3-furan-2-yl-acrylamide] | 910
20 | C[C@]1(c2cc(NC(=O)c3ccc(C#N)c[n+]3[O-])ccc2F)N=C(N)OCC1(F)F [Example 83, 5-Cyano-1-oxy-pyridine-2-carboxylic acid [3-((R)-2-amino-5,5-difluoro-4-methyl-5,6-dihydro-4H-[1,3]oxazin-4-yl)-4-fluoro-phenyl]-amide] | 310
